This is an account of results in publication PMC6270994, “The Hydractinia echinata Test-System. III: Structure-Toxicity Relationship Study of Some Azo-, Azo-Anilide, and Diazonium Salt Derivatives” (Molecules, 2014).

Counter-ions that a name gives are not always drawn. Like-named read-outs stand apart in the source and are kept apart here.

This test relates to Hydractinia echinata. In words: Hydractinia echinata test system (HeTS): reduction of Cs+-induced metamorphosis of larvae. The format is in vivo. Conditions: for EC50: Hydractinia echinata. How it is done:
The average (C) concentrations of these values were calculated too. The MRC50 value calculations (Chicu et al.) result from the graphical representation of the metamorphosis variation, M (%), (Y axis) function of the xenobiotic’s concentration (mol/L) (X axis), where the metamorphosis decreases with the rise of the xenobiotic’s concentration. Thus, the MRC50 value represents the xenobiotic’s concentration (mol/L) necessary for a 50% decrease of metamorphosis, with respect to control.
For each concentration of substance experiments were performed in triplicate and were repeated at least twice.
Colonies of H. echinata (Biologische Anstalt, Helgoland, Germany) were used to obtain eggs and larvae. The culture medium was artificial seawater (980 mosmol, pH 8.2, 18 °C). In laboratory an artificial metamorphosis can be synchronically started by the introduction of Cs^+ ions or by using seawater without Mg^2+ ions; it then lasts only 24 h. Under the action of external stimulus of Cs^+ ions or Cs^+ ions together with the tested compounds, one part of larvae further lives as such and another one is metamorphosized to the polyp form. The evaluation of the influence of the tested substance is very clear this way, the proposed method being based on this aspect.
H. echinata larvae were exposed to seawater containing Cs^+ and simultaneously one of the test substances for 3 h. The percentage of animals that underwent metamorphosis (development into polyps) was determined after 24 h. […] We chose a concentration of inducers which caused about […] to three quarters of the larvae to metamorphose in order to have conditions which are highly sensitive against an inhibitory influence. […] This concentration was termed MRC50 (for Metamorphosis Reduction Concentration) and is similar to the effective EC50 concentration that gives half maximal effective response.

The mark [1] stands for this setting: MRC50 in mol/L = concentration for 50% decrease of metamorphosis vs control, larvae exposed 3 h with Cs+, read after 24 h, read-out: M: experimental Mlog(1/MRC50) (converted).
Where [2] appears, read: MRC50 in mol/L = concentration for 50% decrease of metamorphosis vs control, larvae exposed 3 h with Cs+, read after 24 h.
The mark [3] stands for this setting: parent dye, Table 2, read-out: F(1+2+...)e experimental toxicity log(1/MRC50) (converted).

As to `Nc1ccc2c(O)c(N=Nc3ccc(NC(=O)c4ccc(N=Nc5ccc(O)c(C(=O)O)c5)cc4)cc3)c(S(=O)(=O)O)cc2c1` [Compound 107, 5-{2-[4-({4-[2-(6-Amino-1-hydroxy-3-sulfonaphthalen-2-yl)diazen-1-yl]-phenyl}carbamoyl)-phenyl]diazen-1-yl}-2-hydroxybenzoic acid], the EC50 under setting [1] was 219 µM.

With `Nc1c(N=Nc2ccc(NC(=O)c3ccc(N=Nc4cc(S(=O)(=O)O)c5ccccc5c4N)cc3)cc2)cc(S(=O)(=O)O)c2ccccc12` [Compound 109, 4-Amino-3-[2-(4-{4-[2-(1-amino-4-sulfonaphthalen-2-yl)-diazen-1-yl]-benzamido}phenyl)-diazen-1-yl]-naphthalene-1-sulfonic acid], under setting [1], the EC50 is 166 µM.

Turning to `CN(C)c1ccc(/N=N/c2ccccc2C(=O)O)cc1` [Compound 3, Methyl Red], under setting [1], the EC50 is 209 µM.

`Nc1ccc([N+](=O)[O-])cc1` [p-NA, p-nitroaniline]: the “F(1), F(2),... individual log(1/MRC50) toxicity value” (in vivo) came out at 2.85.

Regarding `O=C(Nc1ccc2c(O)c(N=Nc3ccccc3)c(S(=O)(=O)[O-])cc2c1)Nc1ccc2c(O)c(N=Nc3ccccc3)c(S(=O)(=O)[O-])cc2c1.[Na+].[Na+]` [Compound 129, Direct Brilliant Orange], the “M: experimental Mlog(1/MRC50)” value under setting [2] was 3.65.

Turning to `COc1ccc(N=Nc2ccccc2)cc1` [Compound 1, (4-Methoxyphenyl) (phenyl)diazene], the EC50 is, setting by setting: under setting [1], 6.31 µM; under setting [3], 6.31 µM.

With `CN(C)c1ccc(N=Nc2ccc(S(=O)(=O)[O-])cc2)cc1.[Na+]` [Compound 14, Methyl Orange (Orange III)], under setting [2], the “M: experimental Mlog(1/MRC50)” value was determined as 3.74. The “F(1+2+...)e experimental toxicity log(1/MRC50)” value (parent dye, Table 2) is given as 3.74.

As for `Nc1ccc2cc(S(=O)(=O)O)c(N=Nc3ccc(NC(=O)c4ccc(N=Nc5ccc(O)c(C(=O)O)c5)cc4)cc3)c(O)c2c1` [Compound 108, 5-{2-[4-({4-[2-(7-Amino-1-hydroxy-3-sulfonaphthalen-2-yl)diazen-1-yl]-phenyl}carbamoyl)-phenyl]diazen-1-yl}-2-hydroxybenzoic acid], the EC50 under setting [1] is 214 µM.

As to `O=C(Nc1ccc(N=Nc2c(O)c(S(=O)(=O)O)cc3cc(S(=O)(=O)O)ccc23)cc1)c1ccc(N=Nc2ccc(O)c(C(=O)Nc3ccccc3)c2)cc1` [Compound 127, 3-Hydroxy-4-{2-[4-(4-{2-[4-hydroxy-3-(phenylcarbamoyl)phenyl]diazen-1-yl}-benzamido)phenyl]-diazen-1-yl}-naphthalene-2,7-disulfonic acid], the EC50 under setting [1] is 58.9 µM.

On to `COc1cc(NC(=O)c2ccccc2)c(OC)cc1[N+]#N` [Compound 135, Fast Blue RR Salt], for which the “M: experimental Mlog(1/MRC50)” value under setting [2] is reported as 4.09.

With `O=C(O)c1cc(N=Nc2ccc(C=Cc3ccc(N=Nc4ccc(O)cc4C(=O)O)cc3S(=O)(=O)O)c(S(=O)(=O)O)c2)ccc1O` [Compound 98, 2-{2-[4-(2-{4-[2-(3-Carboxy-4-hydroxy-phenyl)diazen-1-yl]-2-sulfophenyl}ethenyl)-3-sulfophenyl]diazen-1-yl}-5-hydroxybenzoic acid], the EC50 under setting [1] is 407 µM.

For `O=S(=O)(O)c1ccc(O)c(/N=N/c2ccc(O)cc2O)c1` [Compound 21, 3-[(E)-2-(2,4-dihydroxyphenyl)-diazen-1-yl]-4-hydroxybenzene-1-sulfonic acid], the EC50 under setting [1] was 53.7 µM.

As to `CCOc1cc(NC(=O)c2ccccc2)c(OCC)cc1[N+]#N.[Cl-]` [Compound 136, Fast Blue BB Salt], the “M: experimental Mlog(1/MRC50)” value under setting [2] stood at 4.17.

As to `Nc1c(N=Nc2ccc([N+](=O)[O-])cc2)c(S(=O)(=O)[O-])cc2cc(S(=O)(=O)[O-])c(N=Nc3ccccc3)c(O)c12.[Na+].[Na+]` [Compound 75, Acid Black 1 (Salt)], the “M: experimental Mlog(1/MRC50)” value under setting [2] amounted to 4.41.

With `O=C(Nc1ccc(/N=N/c2ccc(O)c(C(=O)O)c2)cc1)c1ccc(/N=N/c2cc(/N=N/c3cc(S(=O)(=O)O)ccc3O)c(O)cc2O)cc1` [Compound 105, 5-[(E)-2-(4-{4-[(E)-2-{2,4-dihydroxy-5-[(E)-2-(2-hydroxy-5-sulfo-phenyl)diazen-1-yl]-phenyl}diazen-1-yl]-benzamido}phenyl)-diazen-1-yl]-2-hydroxybenzoic acid], the EC50 under setting [1] was 229 µM.

In the case of `O=S(=O)(O)c1cc(N=Nc2c(O)ccc3ccccc23)ccc1C=Cc1ccc(N=Nc2c(O)ccc3ccccc23)cc1S(=O)(=O)O` [Compound 100, 5-[2-(2-Hydroxy-naphthalen-1-yl)diazen-1-yl]-2-(2-{4-[2-(2-hydroxynaphthalen-1-yl)diazen-1-yl]-2-sulfophenyl}ethenyl)-benzene-1-sulfonic acid], the EC50 under setting [1] was 28.2 µM.

With `Cc1[nH]n(-c2ccc(S(=O)(=O)O)cc2)c(=O)c1N=Nc1ccc(NC(=O)c2ccc(N=Nc3c(C)[nH]n(-c4ccc(S(=O)(=O)O)cc4)c3=O)cc2)cc1` [Compound 112, 4-(3-Methyl-4-{2-[4-(4-{2-[5-methyl-3-oxo-2-(4-sulfophenyl)-2,3-dihydro-1H-pyrazol-4-yl]diazen-1-yl}-benzamido)phenyl]-diazen-1-yl}-5-oxo-2,5-dihydro-1H-pyrazol-1-yl)benzene-1-sulfonic acid], under setting [1], the EC50 is 95.5 µM.

In the case of `O=S(=O)([O-])c1cc(N=Nc2ccc(O)cc2)ccc1/C=C/c1ccc(N=Nc2ccc(O)cc2)cc1S(=O)(=O)[O-].[Na+].[Na+]` [Compound 96, Brilliant Yellow], under setting [2], the “M: experimental Mlog(1/MRC50)” value turned out to be 3.84. Also, the “F(1+2+...)e experimental toxicity log(1/MRC50)” value (parent dye, Table 2) was 3.84.

On to `O=S(=O)([O-])c1cccc(N=Nc2ccc(Nc3ccccc3)cc2)c1.[Na+]` [Compound 12, Metanil Yellow (sodium salt)], for which the “M: experimental Mlog(1/MRC50)” value under setting [2] is 4.17.

On to `O=S(=O)([O-])c1ccc2c(N=Nc3ccc(S(=O)(=O)[O-])c4ccccc34)c(O)c(S(=O)(=O)[O-])cc2c1.[Na+].[Na+].[Na+]` [Compound 57, Acid Red 27 (Amaranth, Food Red 9)], for which the “M: experimental Mlog(1/MRC50)” value under setting [2] is reported as 2.33.

Turning to `O=S(=O)(O)c1cc(/N=N/c2ccc(O)cc2O)ccc1/C=C/c1ccc(/N=N/c2ccc(O)cc2O)cc1S(=O)(=O)O` [Compound 97, 5-[(E)-2-(2,4-Dihydroxyphenyl)-diazen-1-yl]-2-[(E)-2-{4-[(E)-2-(2,4-dihydroxyphenyl)-diazen-1-yl]-2-sulfophenyl}ethenyl]-benzene-1-sulfonic acid], the EC50 runs as follows: under setting [1], 186 µM; under setting [3], 186 µM.

In the case of `O=C(Nc1ccc(N=Nc2ccc(O)c(C(=O)O)c2)cc1)c1ccc(N=Nc2ccc(O)c(C(=O)O)c2)cc1` [Compound 106, 5-[2-(4-{4-[2-(3-Carboxy-4-hydroxyphenyl)diazen-1-yl]benzamido}-phenyl)diazen-1-yl]-2-hydroxybenzoic acid], the EC50 is 363 µM under setting [1] and 363 µM under setting [3].

On to `O=C(O)c1ccc(N=Nc2ccc(O)cc2)cc1` [Compound 7, 4-[2-(4-Hydroxyphenyl)diazen-1-yl]benzoic acid], for which the EC50 was 479 µM under setting [1] and 479 µM under setting [3].

As to `Cc1ccc(N=Nc2ccc([N+](=O)[O-])cc2)c(O)c1` [Compound 20, 5-Methyl-2-[2-(4-nitrophenyl)-diazen-1-yl]phenol], the EC50 under setting [1] was 77.6 µM and the EC50 under setting [3] was 77.6 µM.

As for `Nc1c(N=Nc2ccc(C=Cc3ccc(N=Nc4cc(S(=O)(=O)O)c5ccccc5c4N)cc3S(=O)(=O)O)c(S(=O)(=O)O)c2)cc(S(=O)(=O)O)c2ccccc12` [Compound 102, 4-Amino-3-{2-[4-(2-{4-[2-(1-amino-4-sulfonaphthalen-2-yl)diazen-1-yl]-2-sulfophenyl}ethenyl)-3-sulfophenyl]diazen-1-yl}naphthalene-1-sulfonic acid], under setting [1], the EC50 was 182 µM.

Turning to 2-Aminocresol, the “F(1), F(2),... individual log(1/MRC50) toxicity value” (product of enzymatic reduction/hydrolysis of the dye) was 3.21.

As to `Cc1cc(-c2ccc(/N=N/c3c(S(=O)(=O)O)cc4cc(S(=O)(=O)O)cc(N)c4c3O)c(C)c2)ccc1/N=N/c1c(S(=O)(=O)O)cc2cc(S(=O)(=O)O)cc(N)c2c1O` [Compound 90, Trypanblue (Direct Blue 14)], the EC50 under setting [1] is 81.3 µM.

For `CN(C)c1ccc(N=Nc2ccccc2C(=O)[O-])cc1.[Na+]` [Compound 4, Methyl Red (sodium salt)], the “M: experimental Mlog(1/MRC50)” value under setting [2] is 3.79.

Take `O=C(Nc1ccc(N=Nc2ccc(O)c(C(=O)Nc3ccccc3)c2)cc1)c1ccc(N=Nc2ccc(O)c(C(=O)Nc3ccccc3)c2)cc1` [Compound 117, 2-Hydroxy-5-{2-[4-(4-{2-[4-hydroxy-3-(phenylcarbamoyl)phenyl]diazen-1-yl}-benzamido)phenyl]-diazen-1-yl}-N-phenylbenzamide]: the EC50 under setting [1] was 166 µM and the EC50 under setting [3] is 166 µM.

Take `COc1cc(-c2ccc(-n3nc(-c4ccccc4)n[n+]3-c3ccccc3)c(OC)c2)ccc1-n1nc(-c2ccccc2)n[n+]1-c1ccccc1` [Compound 95, Tetrazolium Blue Chloride]: the EC50 under setting [1] was 91.2 µM.
